Residues, ends and D or L forms follow the SMILES beside them.
Experiments:
[1] = mouse, in vivo

**Q.** Which results are given for `CC[C@H](C)[C@H](NC(=O)[C@H](CC(C)C)NC(=O)[C@@H](NC(=O)CNC(=O)[C@@H](NC(=O)[C@H](CC(=O)O)NC(=O)[C@H](CC(=O)O)NC(=O)[C@H](CO)NC(=O)[C@@H](NC(=O)[C@H](Cc1ccccc1)NC(=O)[C@H](CO)NC(=O)[C@H](Cc1ccc(O)cc1)NC(=O)[C@H](CCSC)NC(=O)[C@H](CCC(N)=O)NC(=O)[C@@H]1CCCN1C(=O)[C@@H]1CCCN1C(=O)[C@H](CCCNC(=N)N)NC(=O)[C@H](CCCNC(=N)N)NC(=O)[C@H](CCCNC(=N)N)NC(=O)[C@H](CCC(N)=O)NC(=O)[C@H](CCCNC(=N)N)NC(=O)[C@H](CCCNC(=N)N)NC(=O)[C@H](CCCCN)NC(=O)[C@H](CCCCN)NC(=O)[C@H](CCCNC(=N)N)NC(=O)CN)C(C)C)[C@@H](C)O)[C@@H](C)O)C(=O)N[C@H](C(=O)N[C@@H](CC(N)=O)C(=O)N[C@@H](CO)C(=O)N[C@H](C(=O)N[C@@H](CC(C)C)C(=O)O)C(C)C)C(C)C` [iPep-SARS2-E] (H-GRKKRRQRRRPPQMYSFVSDDTGTLIVNSVL-OH)?
**A.** IC50 (SARS-CoV-2 WA1 virus): ~400 nM; Cellular toxicity (healthy, apoptotic, dead/necrotic cells) (Jurkat cells): does not cause cellular toxicity; Body weight and inflammation markers Cxcl12 and C5a [1]: did not find any significant differences

From paper PMC10939250 (PLOS Biology, 2024)
